Values of other authors in patent US10028963B2, “Methods for treating intrapulmonary infections” (priority 2011, dated 2018).

Conditions: patients treated for nosocomial pneumonia

CN(C)c1cc(NC(=O)CNC(C)(C)C)c(O)c2c1C[C@H]1C[C@H]3[C@H](N(C)C)C(=O)C(C(N)=O)=C(O)[C@@]3(O)C(=O)C1=C2O [tigicycline]
Mortality risk compared to other drugs: increased mortality risk
